Patent publication US20210115000A1, “NILE RED DERIVATIVES FOR IMPROVED RATIOMETRIC IMAGING FOR NERVE SPECIFIC CONTRAST” (Oregon Health & Sciences University, priority 2018, published 2021)
Entries after “also recorded” stand apart in the source; their conditions may differ.

What was measured:
[1] = tested on: CD-1 mouse sciatic nerve and surrounding muscle and adipose tissues; experiment: Ex vivo tissue section staining, imaging and fluorescence quantification; conditions: for tissue fluorescence intensity, region of interest analysis / tissue staining specificity on mouse tissue sections: 100 μM, 40 min; for tissue fluorescence intensity, region of interest analysis: n=4 tissue sections; for tissue staining specificity on mouse tissue sections: sections with nerve, muscle, adipose; for adipose to muscle ratio: ex vivo tissue sections, vs control autofluorescence
Procedure: Cryosections of CD-1 mouse sciatic nerve and surrounding muscle and adipose tissues from unrelated experiments were cut from optimal cutting temperature (OCT, Fisher Scientific, Hampton, N.H.) embedded frozen tissues. Cryosectioned tissues were captured on superfrost plus slides (Fisher Scientific) at 10 μm thickness. The tissue sections were washed with 1×PBS for 2 minutes to remove OCT, and then fixed with 2% PFA for 15 mins. The tissue sections were then washed with 0.1% Tween 20 in 1×PBS (3×5 mins), followed by incubation with 100 μM of Nile Red and each Nile Red derivative formulated using 10% DMSO, 5% Kolliphore (Sigma Aldrich, St. Louis, Mo.), 63.75% FBS, and 21.25% 1× PBS as previously described.^26 Tissue sections were incubated with the formulated fluorophores for 40 minutes at room temperature, followed by washing with blank formulation not containing fluorophore (2×5 mins). Each tissue section was then washed with 1×PBS (2×5 mins), fixed for 15 minutes using 2% PFA, followed by a final wash with 1×PBS for 5 mins before mounting in glycerol (Fisher Scientific). Images were collected at an exposure time of 650 ms for all Nile Red and Nile Red derivative stained sections. Four tissue sections were stained for Nile Red and each Nile Red derivative, facilitating adipose to muscle and adipose to nerve contrast ratio quantification where tissue intensities were quantified using region of interest analysis with custom written MatLab code (The MathWorks, Natick, Mass.). For each tissue type, a representative area was selected, where a threshold based mask was set to determine tissue from background. The mean tissue intensity was calculated in adipose, nerve and muscle tissues as the intensity per second and used to calculate the adipose to nerve and adipose to muscle contrast ratios. All ex vivo and cellular fluorescence and white light images were collected using a Zeiss AxioObserver inverted fluorescence microscope (Carl Zeiss, Oberkochen, Germany). All cell images were collected at 40× magnification and all tissue section images were collected at 10× magnification. Fluorescence excitation was completed using a Photofluor II broad band light source (89 North, Burlington, Vt.) filtered with a 545±12.5 nm bandpass excitation filter. Fluorescence images were collected using a 605±35 nm bandpass emission filter and a AxioCam 506 monochromo camera (Zeiss). All Filters were Purchased from Chroma Technologies (Bellows Falls, Vt.).

[2] = tested on: sciatic nerve or brachial plexus nerve sites (adipose, nerve, muscle tissue); experiment: In vivo imaging following direct/topical administration on rodent nerve sites; set-up: species or system male CD-1 mice; conditions: for nerve accumulation: summary of in vitro, ex vivo and in vivo characterization
Description: In vivo images were acquired using a previously published, custom-built small animal fluorescence imaging system, described briefly here.^27 Fluorescent images were obtained using a Qimaging EXi Blue monochrome camera (Surrey, British Columbia, CA) with a removable Bayer mask for collection of co-registered color and fluorescence images. A Photofluor II broad band light source (89 North) was expanded onto the surgical field through a liquid light guide and used unfiltered for white light illumination. Nile Red and NR5 were excitated using a 545 t 12.5 nm bandpass filter, while fluorescence emission images were collected with a 605±35 nm bandpass filter. Oxazine 4 (Exciton, West Chester, Ohio) was used for nerve and adipose co-staining and ratiometic imaging studies. Oxazine 4 was excited using a 620±30 nm bandpass filter, while fluorescence emission images were collected through a 700±37.5 nm bandpass filter. Approval for the use of animals in the study was obtained from the Institutional Animal Care and Use Committee (IACUC) at Oregon Health and Science University (OHSU). In vivo staining studies were carried out on male CD-1 mice using an optimized direct/topical administration protocol.^2 Staining was performed concurrently on no more than two nerve sites (sciatic nerve or brachial plexus) per mouse. Nile Red and all Nile Red derivatives were formulated in a previously published co-solvent formulation (10% DMSO, 5% Kolliphor, 63.75% serum and 21.25% PBS^14) at a final concentration of 100 μM. Each formulated fluorophore was incubated for 5 minutes on the nerve site (n=4 nerve sites/fluorophore), followed by 9 short flushes with PBS. The nerve site was then incubated with blank co-solvent not containing fluorophore for 5 minutes, followed again by 9 short flushes with PBS.

[3] = tested on: U2OS human osteosarcoma cell line; experiment: Nile Red derivative cell staining and imaging, fixed and live cells; format: cell-based; conditions: 1 μM; for fluorescence intensity in fixed cells: U2OS fixed with 4% PFA, imaged without washing; for fluorescence intensity in fixed cells / fluorescence intensity in live cells without washing / structures observed in live cells without washing: 5 min; for fluorescence intensity in live cells without washing / structures observed in live cells without washing: U2OS live, imaged in staining solution
Procedure: The U2OS human osteosarcoma cell line was cultured in Dulbecco's Modified Eagle Medium (DMEM, Thermo Fisher Scientific, Waltham, Mass.) with 10% fetal bovine serum (FBS, VWR, Radnor, Pa.) and 1% Penicillin/Steptomycin 100× (Thermo Fisher Scientific) at 37° C. in 5% CO2. For live cell imaging studies, Fluorobrite DMEM media (Thermo Fisher Scientific) was used in place of DMEM. For imaging studies, cells were grown in 96-well glass bottom plates (Cellvis, Mountain View, Calif.) for 48 hours, with a final confluence of <80%. Nile Red and its derivatives were prepared at 1-10 mM stock concentration in DMSO and diluted into media or buffer for cell staining and imaging studies.
Cell staining studies were completed on fixed and live U2OS cells using Nile Red and each synthesized Nile Red derivative described as follows. For fixed cell staining, cells were washed once with 1× phosphate buffered saline (PBS), then fixed with 4% paraformaldehyde (PFA) for 20 minutes at room temperature. The PFA was removed and each well was washed three times for 5 mins per wash (3×5 mins) with 1×PBS. The Nile Red fluorophores were diluted into 1×PBS to a final concentration of 1 μM, incubated for 5 minutes with the cells, and images were collected without washing. Live cell staining was completed using two methods. First, cells were washed once with Fluorobrite DMEM. The Nile Red fluorophore solution was prepared in Fluorobrite DMEM by diluting to a final concentration of 1 μM for staining, where cells were stained for 5 minutes. The fluorophore containing media was removed and the cells were fixed for 20 minutes using 4% PFA. Cells were then washed 3×5 mins with Fluorobrite DMEM prior to imaging. Second, cells were washed with Fluorobrite DMEM without FBS once for 5 minutes. Nile Red fluorophore solutions were prepared in Fluorobrite without FBS at 1 μM final concentration for cell staining. The cells were stained with the prepared solution for 5 minutes and imaged in the staining solution. All images were collected at their ideal exposure times to permit visualization of stained intracellular structures.
All ex vivo and cellular fluorescence and white light images were collected using a Zeiss AxioObserver inverted fluorescence microscope (Carl Zeiss, Oberkochen, Germany). All cell images were collected at 40× magnification and all tissue section images were collected at 10× magnification. Fluorescence excitation was completed using a Photofluor II broad band light source (89 North, Burlington, Vt.) filtered with a 545±12.5 nm bandpass excitation filter. Fluorescence images were collected using a 605±35 nm bandpass emission filter and a AxioCam 506 monochromo camera (Zeiss). All Filters were Purchased from Chroma Technologies (Bellows Falls, Vt.).

[4] = 100 μM, immediately following direct administration
[5] = 30 minutes post direct administration
[6] = immediately following direct administration

| SMILES | tissue fluorescence intensity, region of interest analysis [1] | tissue staining specificity on mouse tissue sections [1] | adipose to muscle ratio [1] | tissue specific fluorescence intensity [2, 4] | tissue specific fluorescence intensity ([2]; 30 minutes after direct administration) | adipose to muscle contrast [2, 5] | adipose to nerve contrast [2, 5] | adipose to muscle ratio [2, 6] | adipose to nerve ratio [2, 6] | nerve accumulation [2] | fluorescence intensity in fixed cells [3] | fluorescence intensity in live cells without washing [3] | structures observed in live cells without washing [3] | tissue-specific contrast, adipose signal ([2]; out to 120 minutes after direct administration) | fluorescence intensity in both the fixed and live in vitro imaging studies ([3]; U2OS) |
| --- | --- | --- | --- | --- | --- | --- | --- | --- | --- | --- | --- | --- | --- | --- | --- |
| CCN(CC)c1ccc2nc3c4ccccc4c(=O)cc-3oc2c1 [Nile Red] | strong nerve and adipose fluorescence staining; also recorded: highest overall tissue fluorescence | adipose specificity | increased contrast over control autofluorescence adipose to muscle ratio; also recorded: highest contrast ratios | highest fluorescence signal compared to the other Nile Red derivatives; also recorded: strong fluorescence intensity | decrease in adipose, nerve and muscle fluorescence | greatest | decreased | greatest adipose to muscle contrast | increased contrast over control autofluorescence with similar adipose to nerve contrast | some nerve accumulation | bright | brightest overall | Prominent lipid droplet like structures | – | – |
| CCN(CC)c1ccc2nc3c4ccc(-c5ccc(C#N)cc5)cc4c(=O)cc-3oc2c1 [NR5, 4-(9-(diethylamino)-5-oxo-5H-benzo[a]phenoxazin-3-yl)benzonitrile] | strong nerve and adipose fluorescence staining; also recorded: substantially higher adipose, nerve and muscle tissue fluorescence | adipose specificity; also recorded: brightest overall tissue staining compared to the other Nile Red derivatives | increased contrast over control autofluorescence adipose to muscle ratio; also recorded: highest contrast ratios | highest fluorescence signal compared to the other Nile Red derivatives; also recorded: highest fluorescence intensity in the adipose, nerve and muscle tissues of the synthesized Nile Red derivatives | – | – | higher adipose-to-nerve contrast compared to Nile Red; also recorded: increased | lower than Nile Red, adipose to muscle contrast was similar | increased contrast over control autofluorescence with similar adipose to nerve contrast | minimal nerve accumulation | bright | brightest of the synthesized derivatives | Prominent lipid droplet like structures | adipose signal was maintained throughout the 120 minute imaging time | brightest fluorescence intensity of the Nile Red derivatives |
